± gives the expanded uncertainty stated by the source.
Settings: Crystal; visual observation

Normal melting temperature [°C] | SMILES
38.0 ± 2 | CCCC[P+](C)(CCCC)CCCC.COS(=O)(=O)[O-] [tributylmethylphosphonium methyl sulfate]
62.0 ± 2 | CCCC[N+](C)(CCCC)CCCC.COS(=O)(=O)[O-] [N,N-dibutyl-N-methyl-1-butanaminium methyl sulfate]

From the NIST ThermoML archive (doi:10.1021/je3002514)
